Details of data set [1]: species or system human. The conditions noted are these: in vivo. From the text: (§1) Outpatients with type 2 diabetes treated between February and June 2007 with rosiglitazone ([…]) or pioglitazone (n=33) for ≧4 months at the Joslin Diabetes Center affiliate of The Hospital of Central Connecticut (THOCC) in New Britain, Conn. were recruited as volunteer subjects. There were no exclusionary criteria. Each subject provided informed written consent as approved by the THOCC Institutional Review Board.
Clinical Assessment. Patient characteristics included age, height, weight, body mass index, and the presence/absence of edema as recorded by a physician.
Physiogenomic Analysis. Patients treated with rosiglitazone or pioglitazone were recruited from THOCC clinics and provided informed written consent as approved by the THOCC Institutional Review Board. For physiogenomic associations to HbA1c, body mass index and edema, genotype data were obtained on 88 patients, 55 on rosiglitazone and 33 on pioglitazone regimens. A standardized set of phenotypes were collected from the most recent medical records for each patient. Valid genotype data were obtained on the 88 patients. […]
(§2) HbA1c was selected as an indicator for efficacy, and body mass index and edema as indicators of undesired side effect. […] The phenotypes were analyzed for covariate dependence on age, gender, ethnicity, and treatment.

The nature of data set [2]: HbA1c level (efficacy indicator) in type 2 diabetes outpatients on thiazolidinedione therapy. The data set is classed as in vivo, human. The conditions noted are these: average by covariate; type 2 diabetes outpatients treated ≧4 months; from most recent medical records. The protocol: as §1
Hemoglobin A1c: HbA1c levels were measured via ion exchange using the HPLC Variant II (BioRad Laboratories, Hercules Calif.).
Physiogenomic Analysis. Patients treated with rosiglitazone or pioglitazone were recruited from THOCC clinics and provided informed written consent as approved by the THOCC Institutional Review Board. For physiogenomic associations to HbA1c, body mass index and edema, genotype data were obtained on 88 patients, 55 on rosiglitazone and 33 on pioglitazone regimens. A standardized set of phenotypes were collected from the most recent medical records for each patient. Valid genotype data were obtained on the 88 patients. Extensive information on co-medications and disease history were also collected to control for environmental effects.
as §2

For data set [3] the following is noted: suggested by various meta analyses; since disputed; cited from earlier work.

Molecules are shown by their SMILES.

With `CCc1ccc(CCOc2ccc(CC3SC(=O)NC3=O)cc2)nc1` (stereo not drawn) [pioglitazone], the BMI in data set [1] worked out at 33.4. In data set [2], this compound registered a HbA1c of 7.4%. Also, the “risk for myocardial infarction (MI)” value in data set [3] is “does not”.

On to `CN(CCOc1ccc(CC2SC(=O)NC2=O)cc1)c1ccccn1` (stereo not drawn) [rosiglitazone], for which the BMI in data set [1] was 33.7. In data set [2], this compound displayed a HbA1c of 7.4%. Moreover, in data set [3], the “risk for myocardial infarction (MI)” value is recorded as “may increase the risk for myocardial infarction”.

The values are drawn from US8476012B2, “Physiogenomic method for predicting metabolic and cardiovascular side effects of thiazolidinediones” (Genomas, Inc., priority 2008, dated 2013).
